Experimental data: US7825126B2 (The United States of America as represented by the …, priority 2004, dated 2010)
Where “and” joins values, the source holds several entries; their conditions need not be identical. Identical values can stand only once. Like-named read-outs stand apart in the source and are kept apart here.

Key:
human A1 receptors = target: T1, human A1 receptors (Homo sapiens, UniProt P30542); assay: Binding at human A1 adenosine receptor ([3H]R-PIA, CHO cell membranes); conditions: mean ± s.e.m., n = 3-5, read-out: Ki(hA1AR)
T1 construct: expressed in transfected cells
T1 sequence (P30542 1-326): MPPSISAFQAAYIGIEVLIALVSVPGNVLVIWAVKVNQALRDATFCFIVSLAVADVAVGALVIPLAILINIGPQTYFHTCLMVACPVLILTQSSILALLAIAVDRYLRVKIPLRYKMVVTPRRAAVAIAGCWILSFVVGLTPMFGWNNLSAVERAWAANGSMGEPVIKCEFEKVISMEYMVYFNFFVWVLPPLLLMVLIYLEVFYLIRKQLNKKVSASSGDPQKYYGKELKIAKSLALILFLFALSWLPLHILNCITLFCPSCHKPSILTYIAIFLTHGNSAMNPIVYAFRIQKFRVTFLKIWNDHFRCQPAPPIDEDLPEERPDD
Experimental: (§1) Binding assays at the A1 and A2A receptors. […] Reaction was terminated by filtration with GF/B filters.
(§2) Statistical analysis Binding and functional parameters were calculated using Prism 5.0 software (GraphPAD, San Diego, Calif., USA). IC50 values obtained from competition curves were converted to Ki values using the Cheng-Prusoff equation.

human A2A receptors = target: T2, human A2A receptors (Homo sapiens, UniProt P29274); assay: Binding at human A2A adenosine receptor ([3H]CGS21680, HEK-293 cell membranes); conditions: [3H]CGS 21680; mean ± s.e.m., n = 3-5; read-out: Ki(hA2AAR)
T2 construct: expressed in transfected cells
T2 sequence (P29274 whole entry): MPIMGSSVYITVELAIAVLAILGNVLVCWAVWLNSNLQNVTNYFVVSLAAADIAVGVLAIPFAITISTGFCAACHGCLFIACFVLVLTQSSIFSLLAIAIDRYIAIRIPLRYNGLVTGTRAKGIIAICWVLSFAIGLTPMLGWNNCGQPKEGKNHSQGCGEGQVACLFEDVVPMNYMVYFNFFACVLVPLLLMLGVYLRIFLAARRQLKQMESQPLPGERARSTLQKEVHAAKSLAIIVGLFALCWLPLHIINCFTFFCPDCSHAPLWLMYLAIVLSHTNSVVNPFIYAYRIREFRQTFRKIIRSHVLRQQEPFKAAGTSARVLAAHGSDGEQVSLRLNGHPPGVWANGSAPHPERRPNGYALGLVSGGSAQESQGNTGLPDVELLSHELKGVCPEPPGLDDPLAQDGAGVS
Experimental: as §1, §2

[1] = target: T3, human A2B adenosine receptor (hA2BAR) (Homo sapiens, UniProt P29275); assay: Activation of human A2B adenosine receptor at 10 μM; assay type: cell-based; conditions: CHO cells
T3 sequence (P29275 1-332): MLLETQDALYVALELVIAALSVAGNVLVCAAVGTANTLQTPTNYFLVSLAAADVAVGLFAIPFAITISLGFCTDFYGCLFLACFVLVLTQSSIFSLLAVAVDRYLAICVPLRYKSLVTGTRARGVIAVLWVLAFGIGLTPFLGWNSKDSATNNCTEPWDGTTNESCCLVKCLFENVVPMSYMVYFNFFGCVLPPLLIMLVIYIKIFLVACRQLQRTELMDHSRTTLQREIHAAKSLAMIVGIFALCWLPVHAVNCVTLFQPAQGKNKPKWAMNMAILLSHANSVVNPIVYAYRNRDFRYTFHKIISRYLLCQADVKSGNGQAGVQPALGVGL

[2] = target: T4, rat A3 adenosine receptor (Rattus norvegicus, UniProt P28647); assay: Binding at rat A3 adenosine receptor ([125I]I-AB-MECA, CHO cell membranes); conditions: rat A3 AR in CHO cells; unit nM printed in b194 only; read-out: Ki(rA3AR)
T4 construct: expressed in transfected cells; host or cells: CHO cells
T4 sequence (P28647 1-320): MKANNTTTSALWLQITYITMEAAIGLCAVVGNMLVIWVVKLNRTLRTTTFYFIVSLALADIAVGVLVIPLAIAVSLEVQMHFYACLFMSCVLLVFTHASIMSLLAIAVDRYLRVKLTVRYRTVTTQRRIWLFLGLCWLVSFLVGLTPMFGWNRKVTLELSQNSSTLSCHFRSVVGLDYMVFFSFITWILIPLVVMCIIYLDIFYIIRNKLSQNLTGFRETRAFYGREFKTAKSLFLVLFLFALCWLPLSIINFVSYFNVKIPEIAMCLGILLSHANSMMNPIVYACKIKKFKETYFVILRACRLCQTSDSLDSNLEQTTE
Experimental: (§3) Striatal and forebrain tissues from Wistar rats were homogenized in ice-cold 50 mM Tris-HCl buffer, pH 7.4, using an electric homogenizer. The homogenate was centrifuged at 20,000 g for 10 min at 4° C., and the pellet was washed in fresh buffer. The final pellet was stored at −80° C. until the binding experiments. The protein concentration was measured using the Bradford assay. […] The mixtures were incubated at 37° C. for 60 min. […] Filters were washed three times with 9 ml ice-cold buffer. Radioactivity was determined in a Beckman 5500B γ-counter. Statistical analysis Binding and functional parameters were calculated using Prism 5.0 software (GraphPAD, San Diego, Calif., USA). IC50 values obtained from competition curves were converted to Ki values using the Cheng-Prusoff equation.

[3] = target: T5, human A3 adenosine receptor (Homo sapiens, UniProt P0DMS8)
T5 sequence (P0DMS8 1-318): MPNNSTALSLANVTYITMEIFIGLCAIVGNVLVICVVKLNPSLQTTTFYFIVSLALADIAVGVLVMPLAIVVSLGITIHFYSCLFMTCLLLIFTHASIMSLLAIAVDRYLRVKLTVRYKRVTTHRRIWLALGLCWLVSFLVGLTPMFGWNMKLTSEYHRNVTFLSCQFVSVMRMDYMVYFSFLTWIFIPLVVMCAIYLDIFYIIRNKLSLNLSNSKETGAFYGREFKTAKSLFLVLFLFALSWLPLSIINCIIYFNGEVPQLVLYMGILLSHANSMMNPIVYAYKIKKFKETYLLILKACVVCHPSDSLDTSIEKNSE
Experimental: (§4) The cyclic AMP accumulation assay was performed as follows. Intracellular cyclic AMP levels were measured with a competitive protein binding method. […] After centrifugation and resuspension in medium, cells were plated in 24-well plates in 1.0 ml medium. […] The reaction was terminated by removing the supernatant, and cells were lysed upon the addition of 200 μL of 0.1 M ice-cold HCl. The cell lysate was resuspended and stored at −20° C. For determination of cyclic AMP production, protein kinase A (PKA) was incubated with [^3H]cyclic AMP (2 nM) in K2HPO4/EDTA buffer (K2HPO4, 150 mM; EDTA, 10 mM), 20 μL of the cell lysate, and 30 μL 0.1 M HCl or 50 μL of cyclic AMP solution (0-16 pmol/200 μL for standard curve). Bound radioactivity was separated by rapid filtration through Whatman GF/C filters and washed once with cold buffer. Bound radioactivity was measured by liquid scintillation spectrometry.
(§5) Forskolin (10 μM) was used to stimulate cyclic AMP levels.

[4] = target: T5, human A3 adenosine receptor; assay: Binding at human A3 adenosine receptor ([125I]I-AB-MECA, CHO cell membranes); set-up: expressed in transfected cells; host or cells: CHO cells
Experimental: as §3

[5] = target: T5, human A3 adenosine receptor; assay: Cyclic AMP accumulation assay (inhibition of forskolin-stimulated cAMP), CHO cells expressing human A3 adenosine receptor
Experimental: as §4, §5

intact mouse heart = assay: Anti-ischemic cardioprotection, Langendorff-perfused mouse heart model of global ischemia/reperfusion; assay type: in vivo; conditions: 30 nM
Experimental: Anti-ischemic Cardioprotection. Langendorff perfusion of the mouse hearts was carried out. Mice were anesthetized with 60 mg/kg sodium pentobarbital (i.p.), and heart excised in ice-cold perfusion buffer. The aorta was cannulated and retrograde perfused in the Langendorff mode at a pressure of 55 mmHg. To assess isovolumic function, fluid-filled polyvinyl plastic film balloons were inserted into the left ventricle via the left atrium. Balloons were connected to a fluid-filled pressure transducer to measure the left ventricular developed pressure (LVDP), +dP/dt, −dP/dt, and heart rate. To induce normothermic global ischemia and reperfusion, retrograde perfusion of the aorta was stopped, and hearts were immersed in the same perfusion buffer in a water-jacketed bath maintained at 37° C. After 35-min ischemia and 30-min reperfusion, the recovery of left ventricular function was determined by quantifying the LVDP, +dP/dt, and −dP/dt. To quantify the infarct, the hearts were retrograde perfused with 1% triphenyltetrazolium chloride (TTC) in perfusion buffer for 10 minutes after 120-min reperfusion, which allowed washout of pyridine nucleotides from necrotic cells as required for TTC staining. The heart was then immersed in the same TTC buffer for another 10 minutes. The hearts were frozen, cut into six or seven 1 mm slices from apex to base, and scanned for measurement of infarct size by computer morphometry (Image-Pro Plus, version 5.0, Media Cybernetics, Inc, Silver Spring, Md.). The infarct size was quantified as the area of necrosis normalized to the total ventricular area.

rat A1 receptors = rat A1 receptors (Rattus norvegicus, UniProt P25099); assay: biochemical
Chain of rat A1 receptors (P25099 whole entry): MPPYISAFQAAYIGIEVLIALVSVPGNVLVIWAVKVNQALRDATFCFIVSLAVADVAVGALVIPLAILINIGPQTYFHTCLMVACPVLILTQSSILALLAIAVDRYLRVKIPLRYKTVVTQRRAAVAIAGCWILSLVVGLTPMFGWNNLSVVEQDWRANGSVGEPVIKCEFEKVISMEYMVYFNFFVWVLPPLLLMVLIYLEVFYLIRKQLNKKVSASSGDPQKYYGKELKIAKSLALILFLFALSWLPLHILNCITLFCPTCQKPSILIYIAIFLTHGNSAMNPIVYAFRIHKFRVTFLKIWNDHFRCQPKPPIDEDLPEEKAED
Experimental: Striatal and forebrain tissues from Wistar rats were homogenized in ice-cold 50 mM Tris-HCl buffer, pH 7.4, using an electric homogenizer. The homogenate was centrifuged at 20,000 g for 10 min at 4° C., and the pellet was washed in fresh buffer. The final pellet was stored at −80° C. until the binding experiments. The protein concentration was measured using the Bradford assay.
as §1, §2

[6] = target: T6, human A1 adenosine receptor (Homo sapiens, UniProt P30542); assay: Cyclic AMP accumulation assay (inhibition of forskolin-stimulated cAMP), CHO cells expressing human A1 adenosine receptor
T6 sequence (P30542 1-326): T1 sequence (P30542 1-326)
Experimental: as §4, §5

[7] = n = 6, 35 global ischemia followed by reperfusion

## CNC(=O)[C@@]12C[C@@H]1[C@@H](n1cnc3c(NCC(c4ccccc4)c4ccccc4)nc(Cl)nc31)[C@H](O)[C@@H]2O [Compound 34]
Human A1 receptors
  Ki: 1300 ± 100 nM
Human A2A receptors
  Ki: 1600 ± 100 nM
[1]
  % Activation (hA2BAR) at 10 μM: 46%
[2]
  Ki: 10 ± 4 nM
[3]
  % Activation (hA3AR) at 10 μM: 107 ± 9%
[4]; 2-chloro, 5′-N-methylamide substituted compounds
  affinity at the human A3 adenosine receptor (in words): subnanomolar
[4]; [125I]I-AB-MECA, mean ± s.e.m., n = 3-5, read-out: Ki(hA3AR)
  Ki: 0.69 ± 0.02 nM
[4]; ratio of Ki hA1 / hA3
  Selectivity for the human A3 adenosine receptor in comparison to the A1 adenosine receptor: 1900 fold
[5]; concentration of 10 μM
  agonist efficacy at the A3 adenosine receptor (inhibition of forskolin-stimulated adenylate cyclase): agonist

## CNC(=O)C12CC1C(n1cnc3c(NC4CCCC4)nc(Cl)nc31)C(O)C2O (stereo not drawn) [Compound 104, (1′S,2′R,3′S,4′S,5′S) -4′-[6-(cyclopentylamino)-2-chloro-purin-9-yl]-2′,3′-dihydroxy-bicyclo[3.1.0]hexane-1′-carboxylic acid methyl amide]
Intact mouse heart
  recovery of left ventricular developed pressure, +dP/dt, −dP/dt and heart rate (in words): improved significantly
Intact mouse heart; [7]
  Recovery of +dP/dt: 21.1 ± 4.9 % of baseline prior to ischemia/reperfusion
  Recovery of HR: 93.8 ± 19.3 % of baseline prior to ischemia/reperfusion
  Recovery of LVDP: 26.0 ± 4.8 % of baseline prior to ischemia/reperfusion
  Recovery of −dP/dt: 24.6 ± 7 % of baseline prior to ischemia/reperfusion
Intact mouse heart; n = 6, area of necrosis normalized to total ventricular area
  % necrosis (infarct size, TTC staining): 15±7% and 15.0 ± 6.9%
Intact mouse heart; perfused until induction of ischemia
  anti-ischemic cardioprotective effect (in words): potent anti-ischemic cardioprotective effect
Intact mouse heart; computer morphometry after TTC staining
  infarct size (in words): significantly reduced
Rat A1 receptors
  Ki: 17.4 nM
[5]
  EC50: 2.8 nM
[5]; 10 μM, relative to 10 μM Cl-IB-MECA
  % Activation (hA3AR) at 10 μM: 101 ± 10%
[5]; intact transfected CHO cells
  agonist character at human A3 (concentration response curves, cAMP): full agonist
[6]
  EC50: 8.2 nM
[6]; intact transfected CHO cells
  agonist character at human A1 (concentration response curves, cAMP): full agonist
